{"source": "PubChem BioAssay AID288", "about": "(DTP/NCI, 2004)", "system": "BDF1 mice, M5076 sarcoma s.c., survival/tumor T/C", "test": "NCI In Vivo Anticancer Drug Screen. Data for tumor model Sarcoma M5076 (subcutaneous) in B6D2F1 (BDF1) mice", "description": "The antitumor activity of compounds was measured in mice bearing transplantable tumors. Survival or tumor size were measured and the results are expressed as the measurement made in the treated group (T) divided by the measurement made in the vehicle treated control group (C). The tumor model used in this assay is Sarcoma M5076 (subcutaneous) in B6D2F1 (BDF1) mice", "note": "Where “and” joins values, the source holds several entries; their conditions need not be identical. Equal entries are not always repeated. Results filed as inconclusive are left out."}
{"compound": "S=P(N1CC1)(N1CC1)N1CC1", "values": [{"measurement": "T/C", "setting": "endpoint: median survival time, dose: 3.4 mg/kg/injection, schedule: Q01DX007 (ip), vehicle: saline, higher = longer survival", "value": "100 % of control"}, {"measurement": "T/C", "setting": "endpoint: median survival time, dose: 3.4 mg/kg/injection, schedule: Q02DX007 (ip), vehicle: saline, higher = longer survival", "value": "105 % of control"}, {"measurement": "T/C", "setting": "endpoint: median survival time, dose: 4.0 mg/kg/injection, schedule: Q04DX003 (ip), vehicle: saline, higher = longer survival", "value": "101 % of control"}, {"measurement": "T/C", "setting": "endpoint: median survival time, dose: 5.0 mg/kg/injection, schedule: Q01DX007 (ip), vehicle: saline, higher = longer survival", "value": "105 % of control"}, {"measurement": "T/C", "setting": "endpoint: median survival time, dose: 5.0 mg/kg/injection, schedule: Q02DX007 (ip), vehicle: saline, higher = longer survival", "value": "101 % of control"}, {"measurement": "T/C", "setting": "endpoint: median survival time, dose: 6.0 mg/kg/injection, schedule: Q04DX003 (ip), vehicle: saline, higher = longer survival", "value": "100 % of control"}, {"measurement": "T/C", "setting": "endpoint: median survival time, dose: 6.0 mg/kg/injection, schedule: Q07DX003 (ip), vehicle: saline, higher = longer survival", "value": "99 % of control"}, {"measurement": "T/C", "setting": "endpoint: median survival time, dose: 7.5 mg/kg/injection, schedule: Q01DX007 (ip), vehicle: saline, higher = longer survival", "value": "106 % of control"}, {"measurement": "T/C", "setting": "endpoint: median survival time, dose: 7.5 mg/kg/injection, schedule: Q02DX007 (ip), vehicle: saline, higher = longer survival", "value": "117 % of control"}, {"measurement": "T/C", "setting": "endpoint: median survival time, dose: 9.0 mg/kg/injection, schedule: Q04DX003 (ip), vehicle: saline, higher = longer survival", "value": "107 % of control"}, {"measurement": "T/C", "setting": "endpoint: median survival time, dose: 9.0 mg/kg/injection, schedule: Q07DX003 (ip), vehicle: saline, higher = longer survival", "value": "108 % of control"}, {"measurement": "T/C", "setting": "endpoint: median survival time, dose: 12.0 mg/kg/injection, schedule: Q07DX003 (ip), vehicle: saline, higher = longer survival", "value": "111 % of control"}]}
{"compound": "CC1CCC(NC(=O)N(CCF)N=O)CC1", "note": "(configuration not stated)", "values": [{"measurement": "T/C", "setting": "endpoint: median survival time, dose: 30.0 mg/kg/injection, schedule: Q01DX003 (ip), vehicle: saline with Tween-80, higher = longer survival", "value": "157 % of control"}, {"measurement": "T/C", "setting": "endpoint: median survival time, dose: 50.0 mg/kg/injection, schedule: Q01DX001 (ip), vehicle: saline with Tween-80, higher = longer survival", "value": "152 % of control"}]}
{"compound": "O=c1[nH]c(=O)n([C@H]2CCCO2)cc1F", "values": [{"measurement": "T/C", "setting": "endpoint: mean tumor weight, dose: 50.0 mg/kg/injection, schedule: Q02DX011 (ip), vehicle: alkali diluted with saline, higher = larger tumour", "value": "150 % of control"}, {"measurement": "T/C", "setting": "endpoint: mean tumor weight, dose: 100.0 mg/kg/injection, schedule: Q02DX011 (ip), vehicle: alkali diluted with saline, higher = larger tumour", "value": "93 % of control"}, {"measurement": "T/C", "setting": "endpoint: mean tumor weight, dose: 200.0 mg/kg/injection, schedule: Q02DX011 (ip), vehicle: alkali diluted with saline, higher = larger tumour", "value": "74 % of control"}]}
{"compound": "C[C@@H](CN1CC(=O)NC(=O)C1)N1CC(=O)NC(=O)C1", "values": [{"measurement": "T/C", "setting": "endpoint: median survival time, dose: 32.0 mg/kg/injection, schedule: Q01DX009 (ip), vehicle: saline with Tween-80, higher = longer survival", "value": "119 % of control"}, {"measurement": "T/C", "setting": "endpoint: median survival time, dose: 64.0 mg/kg/injection, schedule: Q01DX009 (ip), vehicle: saline with Tween-80, higher = longer survival", "value": "108 % of control and 111 % of control"}, {"measurement": "T/C", "setting": "endpoint: median survival time, dose: 128.0 mg/kg/injection, schedule: Q01DX009 (ip), vehicle: saline with Tween-80, higher = longer survival", "value": "115 % of control and 119 % of control"}, {"measurement": "T/C", "setting": "endpoint: median tumor weight (est.), dose: 32.0 mg/kg/injection, schedule: Q01DX009 (ip), vehicle: saline with Tween-80, higher = larger tumour", "value": "68 % of control"}, {"measurement": "T/C", "setting": "endpoint: median tumor weight (est.), dose: 64.0 mg/kg/injection, schedule: Q01DX009 (ip), vehicle: saline with Tween-80, higher = larger tumour", "value": "36 % of control and 58 % of control"}, {"measurement": "T/C", "setting": "endpoint: median tumor weight (est.), dose: 128.0 mg/kg/injection, schedule: Q01DX009 (ip), vehicle: saline with Tween-80, higher = larger tumour", "value": "18 % of control and 37 % of control"}, {"measurement": "T/C", "setting": "endpoint: median tumor weight (est.), dose: 256.0 mg/kg/injection, schedule: Q01DX009 (ip), vehicle: saline with Tween-80, higher = larger tumour", "value": "14 % of control"}]}
{"compound": "Cc1ccc(S(=O)(=O)O)cc1.Cc1ccc(S(=O)(=O)O)cc1.[NH-]C1CCCCC1[NH-].[Pt+2]", "values": [{"measurement": "T/C", "setting": "endpoint: median survival time, dose: 4.0 mg/kg/injection, schedule: Q02DX032 (ip), vehicle: dextrose, higher = longer survival", "value": "94 % of control"}]}
{"compound": "COc1cc2cc3c4cc(OC)c(OC)cc4cc[n+]3c(C)c2cc1OC", "note": "(tested in a mixture with another compound)", "values": [{"measurement": "T/C", "setting": "endpoint: mean tumor weight, dose: 37.5 mg/kg/injection, schedule: Q02DX011 (ip), vehicle: saline, higher = larger tumour", "value": "64 % of control"}, {"measurement": "T/C", "setting": "endpoint: mean tumor weight, dose: 75.0 mg/kg/injection, schedule: Q02DX011 (ip), vehicle: saline, higher = larger tumour", "value": "45 % of control"}, {"measurement": "T/C", "setting": "endpoint: mean tumor weight, dose: 150.0 mg/kg/injection, schedule: Q02DX011 (ip), vehicle: saline, higher = larger tumour", "value": "13 % of control"}]}
{"compound": "COC(=O)c1csc(C2OC(CO)C(O)C2O)n1", "note": "(configuration not stated)", "values": [{"measurement": "T/C", "setting": "endpoint: median survival time, dose: 50.0 mg/kg/injection, schedule: Q01DX009 (ip), vehicle: saline, higher = longer survival", "value": "98 % of control"}, {"measurement": "T/C", "setting": "endpoint: median survival time, dose: 100.0 mg/kg/injection, schedule: Q01DX009 (ip), vehicle: saline, higher = longer survival", "value": "100 % of control"}, {"measurement": "T/C", "setting": "endpoint: median survival time, dose: 200.0 mg/kg/injection, schedule: Q01DX009 (ip), vehicle: saline, higher = longer survival", "value": "100 % of control"}, {"measurement": "T/C", "setting": "endpoint: median tumor weight (est.), dose: 50.0 mg/kg/injection, schedule: Q01DX009 (ip), vehicle: saline, higher = larger tumour", "value": "61 % of control"}, {"measurement": "T/C", "setting": "endpoint: median tumor weight (est.), dose: 100.0 mg/kg/injection, schedule: Q01DX009 (ip), vehicle: saline, higher = larger tumour", "value": "77 % of control"}, {"measurement": "T/C", "setting": "endpoint: median tumor weight (est.), dose: 200.0 mg/kg/injection, schedule: Q01DX009 (ip), vehicle: saline, higher = larger tumour", "value": "85 % of control"}]}
{"compound": "O=NN(CCCl)C(=O)NC1CCC(=O)NC1=O", "note": "(configuration not stated)", "values": [{"measurement": "T/C", "setting": "endpoint: median survival time, dose: 2.0 mg/kg/injection, schedule: Q01DX009 (ip), vehicle: saline + alcohol, higher = longer survival", "value": "170 % of control"}, {"measurement": "T/C", "setting": "endpoint: median survival time, dose: 4.0 mg/kg/injection, schedule: Q01DX009 (ip), vehicle: saline + alcohol, higher = longer survival", "value": "208 % of control"}, {"measurement": "T/C", "setting": "endpoint: median survival time, dose: 8.0 mg/kg/injection, schedule: Q01DX009 (ip), vehicle: saline + alcohol, higher = longer survival", "value": "86 % of control"}]}
{"compound": "CCCCCCC(=O)O[C@H]1CC[C@H]2[C@@H]3CCC4=CC(=O)CC[C@]4(C)[C@H]3CC[C@]12C", "values": [{"measurement": "T/C", "setting": "endpoint: mean tumor weight, dose: 15.0 mg/kg/injection, schedule: Q02DX011 (ip), vehicle: Klucel (hydroxypropylcellulose) (HPC), higher = larger tumour", "value": "43 % of control"}, {"measurement": "T/C", "setting": "endpoint: mean tumor weight, dose: 30.0 mg/kg/injection, schedule: Q02DX011 (ip), vehicle: Klucel (hydroxypropylcellulose) (HPC), higher = larger tumour", "value": "68 % of control"}, {"measurement": "T/C", "setting": "endpoint: median tumor weight (est.), dose: 7.5 mg/kg/injection, schedule: Q02DX011 (ip), vehicle: Klucel (hydroxypropylcellulose) (HPC), higher = larger tumour", "value": "124 % of control"}, {"measurement": "T/C", "setting": "endpoint: median tumor weight (est.), dose: 15.0 mg/kg/injection, schedule: Q02DX011 (ip), vehicle: Klucel (hydroxypropylcellulose) (HPC), higher = larger tumour", "value": "21 % of control"}, {"measurement": "T/C", "setting": "endpoint: median tumor weight (est.), dose: 30.0 mg/kg/injection, schedule: Q02DX011 (ip), vehicle: Klucel (hydroxypropylcellulose) (HPC), higher = larger tumour", "value": "52 % of control"}]}
